In PMC10178848, “Modulating fast skeletal muscle contraction protects skeletal muscle in animal models of Duchenne muscular dystrophy” (The Journal of Clinical Investigation, 2023):
Like-named read-outs stand apart in the source and are kept apart here.

Assays:
TGFBR1 = target: T1, TGFBR1 (Homo sapiens, UniProt P36897); assay: KINOMEscan scanEDGE; assay type: binding; settings: 20 uM
T1 construct: purchased Eurofins DiscoverX (KINOMEscan; SAFETYscan E/IC50 ELECT)

PAK4 = target: T2, PAK4 (Homo sapiens, UniProt O96013); assay: KINOMEscan scanEDGE; assay type: binding; settings: 20 uM
T2 construct: purchased Eurofins DiscoverX (KINOMEscan; SAFETYscan E/IC50 ELECT)

CHRM3 = target: T3, CHRM3 (Homo sapiens, UniProt P20309); assay: SAFETYscan Calcium Flux; assay type: cell-based; design: dose or concentration left out as unconfirmed
T3 construct: purchased Eurofins DiscoverX (KINOMEscan; SAFETYscan E/IC50 ELECT)
T3 sequence (P20309 whole entry): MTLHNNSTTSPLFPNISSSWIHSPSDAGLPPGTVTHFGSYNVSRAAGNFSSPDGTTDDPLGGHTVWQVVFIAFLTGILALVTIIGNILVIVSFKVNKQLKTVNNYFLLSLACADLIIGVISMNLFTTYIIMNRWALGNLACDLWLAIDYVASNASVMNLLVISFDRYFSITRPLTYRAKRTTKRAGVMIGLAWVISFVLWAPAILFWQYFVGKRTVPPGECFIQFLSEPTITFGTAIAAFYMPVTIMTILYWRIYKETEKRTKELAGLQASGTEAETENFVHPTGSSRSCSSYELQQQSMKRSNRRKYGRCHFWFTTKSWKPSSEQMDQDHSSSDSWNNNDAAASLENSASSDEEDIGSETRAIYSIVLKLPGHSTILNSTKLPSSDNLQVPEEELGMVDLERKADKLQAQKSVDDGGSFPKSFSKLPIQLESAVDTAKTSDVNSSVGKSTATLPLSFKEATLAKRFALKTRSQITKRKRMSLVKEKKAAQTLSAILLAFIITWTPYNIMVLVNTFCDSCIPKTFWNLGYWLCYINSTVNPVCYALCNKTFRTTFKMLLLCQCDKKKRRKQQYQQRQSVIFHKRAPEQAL
Protocol: (§1) The specificity of EDG-5506 for fast skeletal myosin over other, unrelated proteins was confirmed using two off-target binding and activity screens. […] A second off-target panel (SAFETYscan E/IC50 ELECT, Eurofins DiscoverX) tested in vitro enzyme activity against 78 proteins, including GPCR, ion channel, kinases, nuclear hormone receptors, and transporters. In all assays, the IC50 of EDG-5506 was more than 10 μM (Supplemental Data File 1).

ADORA2A = target: T4, ADORA2A (Homo sapiens, UniProt P29274); assay: SAFETYscan Calcium Flux; assay type: cell-based; design: dose or concentration left out as unconfirmed
T4 construct: purchased Eurofins DiscoverX (KINOMEscan; SAFETYscan E/IC50 ELECT)
T4 sequence (P29274 whole entry): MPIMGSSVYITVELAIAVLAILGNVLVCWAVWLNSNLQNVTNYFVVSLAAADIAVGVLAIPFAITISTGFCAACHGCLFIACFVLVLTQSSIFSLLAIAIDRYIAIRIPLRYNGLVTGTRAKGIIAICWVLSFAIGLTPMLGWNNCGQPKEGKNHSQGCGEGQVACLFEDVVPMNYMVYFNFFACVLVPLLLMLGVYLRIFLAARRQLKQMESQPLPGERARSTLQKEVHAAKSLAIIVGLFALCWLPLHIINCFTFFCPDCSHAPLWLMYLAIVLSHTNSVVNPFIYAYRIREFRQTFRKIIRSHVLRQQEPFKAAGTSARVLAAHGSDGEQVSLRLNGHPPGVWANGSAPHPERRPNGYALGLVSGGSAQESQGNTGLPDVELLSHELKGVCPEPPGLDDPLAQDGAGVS
Protocol: as §1

CHRM1 = target: T5, CHRM1 (Homo sapiens, UniProt P11229); assay: SAFETYscan Calcium Flux; assay type: cell-based; design: dose or concentration left out as unconfirmed
T5 construct: purchased Eurofins DiscoverX (KINOMEscan; SAFETYscan E/IC50 ELECT)
T5 sequence (P11229 whole entry): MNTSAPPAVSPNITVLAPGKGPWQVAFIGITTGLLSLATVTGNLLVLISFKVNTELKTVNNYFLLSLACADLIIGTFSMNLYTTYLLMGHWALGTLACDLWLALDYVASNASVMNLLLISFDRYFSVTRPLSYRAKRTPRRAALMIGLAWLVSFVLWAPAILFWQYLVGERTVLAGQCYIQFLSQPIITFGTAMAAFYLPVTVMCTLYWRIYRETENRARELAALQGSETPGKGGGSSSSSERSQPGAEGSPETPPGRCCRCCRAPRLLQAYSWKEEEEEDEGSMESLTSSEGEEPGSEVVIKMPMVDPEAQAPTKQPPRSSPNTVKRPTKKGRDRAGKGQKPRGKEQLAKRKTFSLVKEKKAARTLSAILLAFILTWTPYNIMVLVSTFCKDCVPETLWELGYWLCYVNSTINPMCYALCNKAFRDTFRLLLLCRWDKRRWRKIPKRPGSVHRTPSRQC
Protocol: as §1

ADRA1A = target: T6, ADRA1A (Homo sapiens, UniProt P35348); assay: SAFETYscan Calcium Flux; assay type: cell-based; design: dose or concentration left out as unconfirmed
T6 construct: purchased Eurofins DiscoverX (KINOMEscan; SAFETYscan E/IC50 ELECT)
T6 sequence (P35348 whole entry): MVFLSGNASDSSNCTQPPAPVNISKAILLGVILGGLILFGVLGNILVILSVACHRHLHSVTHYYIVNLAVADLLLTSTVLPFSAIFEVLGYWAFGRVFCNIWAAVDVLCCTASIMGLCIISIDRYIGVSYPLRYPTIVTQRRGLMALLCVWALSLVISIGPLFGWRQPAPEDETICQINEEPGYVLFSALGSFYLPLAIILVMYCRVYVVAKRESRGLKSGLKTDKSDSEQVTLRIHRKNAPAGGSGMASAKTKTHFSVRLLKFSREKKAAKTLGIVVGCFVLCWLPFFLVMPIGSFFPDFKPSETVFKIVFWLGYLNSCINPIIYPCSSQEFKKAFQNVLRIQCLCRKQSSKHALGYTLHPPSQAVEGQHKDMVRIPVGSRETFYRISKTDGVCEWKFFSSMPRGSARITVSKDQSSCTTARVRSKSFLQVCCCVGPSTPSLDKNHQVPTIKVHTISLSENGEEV
Protocol: as §1

CCKAR = target: T7, CCKAR (Homo sapiens, UniProt P32238); assay: SAFETYscan Calcium Flux; assay type: cell-based; design: dose or concentration left out as unconfirmed
T7 construct: purchased Eurofins DiscoverX (KINOMEscan; SAFETYscan E/IC50 ELECT)
T7 sequence (P32238 whole entry): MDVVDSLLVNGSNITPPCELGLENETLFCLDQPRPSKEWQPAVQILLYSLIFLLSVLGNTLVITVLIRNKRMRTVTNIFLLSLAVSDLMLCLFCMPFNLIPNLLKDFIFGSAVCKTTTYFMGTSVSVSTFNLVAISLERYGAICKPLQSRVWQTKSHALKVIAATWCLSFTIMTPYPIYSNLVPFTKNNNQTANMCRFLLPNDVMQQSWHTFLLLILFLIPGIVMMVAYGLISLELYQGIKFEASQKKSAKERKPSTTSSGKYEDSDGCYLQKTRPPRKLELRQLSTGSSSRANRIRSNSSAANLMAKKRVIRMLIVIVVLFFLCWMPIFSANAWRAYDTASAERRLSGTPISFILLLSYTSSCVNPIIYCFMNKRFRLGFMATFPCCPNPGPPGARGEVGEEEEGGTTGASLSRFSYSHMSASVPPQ
Protocol: as §1

HTR2A = target: T8, HTR2A (Homo sapiens, UniProt P28223); assay: SAFETYscan Calcium Flux; assay type: cell-based; design: dose or concentration left out as unconfirmed
T8 construct: purchased Eurofins DiscoverX (KINOMEscan; SAFETYscan E/IC50 ELECT)
T8 sequence (P28223 whole entry): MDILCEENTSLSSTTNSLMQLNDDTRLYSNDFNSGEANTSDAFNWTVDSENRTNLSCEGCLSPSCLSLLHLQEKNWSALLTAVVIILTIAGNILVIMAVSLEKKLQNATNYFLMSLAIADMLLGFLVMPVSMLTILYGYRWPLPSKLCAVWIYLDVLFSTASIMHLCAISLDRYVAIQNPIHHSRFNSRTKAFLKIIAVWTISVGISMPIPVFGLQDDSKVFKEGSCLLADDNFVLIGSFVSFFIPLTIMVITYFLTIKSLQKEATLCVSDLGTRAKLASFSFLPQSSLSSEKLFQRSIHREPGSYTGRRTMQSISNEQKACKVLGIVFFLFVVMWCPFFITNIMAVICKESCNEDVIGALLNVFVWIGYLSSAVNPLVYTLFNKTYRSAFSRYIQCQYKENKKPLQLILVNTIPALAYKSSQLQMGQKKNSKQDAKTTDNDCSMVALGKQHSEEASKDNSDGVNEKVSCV
Protocol: as §1

HTR2B = target: T9, HTR2B (Homo sapiens, UniProt P41595); assay: SAFETYscan Calcium Flux; assay type: cell-based; design: dose or concentration left out as unconfirmed
T9 construct: purchased Eurofins DiscoverX (KINOMEscan; SAFETYscan E/IC50 ELECT)
T9 sequence (P41595 whole entry): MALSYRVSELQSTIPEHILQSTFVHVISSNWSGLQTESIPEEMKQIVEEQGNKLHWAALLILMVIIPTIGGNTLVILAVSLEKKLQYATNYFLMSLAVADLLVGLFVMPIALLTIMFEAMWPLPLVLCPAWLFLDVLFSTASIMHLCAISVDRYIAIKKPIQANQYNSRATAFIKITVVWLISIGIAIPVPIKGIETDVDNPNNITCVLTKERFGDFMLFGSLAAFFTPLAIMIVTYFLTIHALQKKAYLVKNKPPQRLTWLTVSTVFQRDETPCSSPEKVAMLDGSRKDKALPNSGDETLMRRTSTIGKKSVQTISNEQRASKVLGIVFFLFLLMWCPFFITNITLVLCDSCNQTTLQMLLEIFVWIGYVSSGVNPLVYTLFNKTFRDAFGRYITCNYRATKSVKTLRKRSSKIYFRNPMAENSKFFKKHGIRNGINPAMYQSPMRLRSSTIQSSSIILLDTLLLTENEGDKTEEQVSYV
Protocol: as §1

HRH1 = target: T10, HRH1 (Homo sapiens, UniProt P35367); assay: SAFETYscan Calcium Flux; assay type: cell-based; design: dose or concentration left out as unconfirmed
T10 construct: purchased Eurofins DiscoverX (KINOMEscan; SAFETYscan E/IC50 ELECT)
T10 sequence (P35367 whole entry): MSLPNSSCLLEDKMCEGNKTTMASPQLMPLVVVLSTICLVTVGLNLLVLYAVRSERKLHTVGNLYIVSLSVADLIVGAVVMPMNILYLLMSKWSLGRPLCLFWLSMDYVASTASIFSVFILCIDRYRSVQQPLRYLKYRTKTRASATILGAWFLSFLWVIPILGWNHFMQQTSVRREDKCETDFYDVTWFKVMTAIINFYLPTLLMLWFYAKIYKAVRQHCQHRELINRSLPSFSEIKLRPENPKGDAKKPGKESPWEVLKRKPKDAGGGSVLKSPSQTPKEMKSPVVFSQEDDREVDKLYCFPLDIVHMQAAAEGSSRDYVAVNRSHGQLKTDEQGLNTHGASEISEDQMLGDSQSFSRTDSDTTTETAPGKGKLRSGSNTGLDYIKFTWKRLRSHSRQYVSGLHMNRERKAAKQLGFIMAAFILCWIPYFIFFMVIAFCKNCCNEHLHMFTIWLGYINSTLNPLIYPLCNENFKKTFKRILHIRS
Protocol: as §1

EDNRA = target: T11, EDNRA (Homo sapiens, UniProt P25101); assay: SAFETYscan Calcium Flux; assay type: cell-based; design: dose or concentration left out as unconfirmed
T11 construct: purchased Eurofins DiscoverX (KINOMEscan; SAFETYscan E/IC50 ELECT)
T11 sequence (P25101 21-427): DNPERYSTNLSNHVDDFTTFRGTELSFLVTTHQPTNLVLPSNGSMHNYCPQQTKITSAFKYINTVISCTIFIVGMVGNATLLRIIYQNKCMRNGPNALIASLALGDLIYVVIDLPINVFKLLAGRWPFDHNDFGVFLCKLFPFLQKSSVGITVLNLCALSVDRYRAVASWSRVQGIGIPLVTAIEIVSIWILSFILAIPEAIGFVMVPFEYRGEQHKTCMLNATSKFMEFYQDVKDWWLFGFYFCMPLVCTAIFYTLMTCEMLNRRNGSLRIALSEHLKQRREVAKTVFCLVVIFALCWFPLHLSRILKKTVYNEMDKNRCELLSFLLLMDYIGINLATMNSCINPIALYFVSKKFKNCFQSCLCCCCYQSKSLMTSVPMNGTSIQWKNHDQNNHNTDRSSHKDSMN
Protocol: as §1

AVPR1A = target: T12, AVPR1A (Homo sapiens, UniProt P37288); assay: SAFETYscan Calcium Flux; assay type: cell-based; design: dose or concentration left out as unconfirmed
T12 construct: purchased Eurofins DiscoverX (KINOMEscan; SAFETYscan E/IC50 ELECT)
T12 sequence (P37288 whole entry): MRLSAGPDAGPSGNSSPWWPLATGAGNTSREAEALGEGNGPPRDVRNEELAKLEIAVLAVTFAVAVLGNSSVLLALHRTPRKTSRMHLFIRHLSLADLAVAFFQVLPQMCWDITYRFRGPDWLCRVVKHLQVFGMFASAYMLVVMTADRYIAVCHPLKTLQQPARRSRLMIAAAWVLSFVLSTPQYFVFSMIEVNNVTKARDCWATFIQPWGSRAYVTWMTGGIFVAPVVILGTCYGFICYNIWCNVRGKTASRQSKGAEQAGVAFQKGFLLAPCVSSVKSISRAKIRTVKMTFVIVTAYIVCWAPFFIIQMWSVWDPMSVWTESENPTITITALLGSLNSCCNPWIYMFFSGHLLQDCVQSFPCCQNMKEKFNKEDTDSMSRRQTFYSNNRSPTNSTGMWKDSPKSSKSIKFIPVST
Protocol: as §1

FLT3 = target: T13, FLT3 (Homo sapiens, UniProt P36888); assay: KINOMEscan scanEDGE; assay type: binding; settings: 20 uM
T13 construct: purchased Eurofins DiscoverX (KINOMEscan; SAFETYscan E/IC50 ELECT)

JNK3 = target: T14, JNK3 (Homo sapiens, UniProt P53779); assay: KINOMEscan scanEDGE; assay type: binding; settings: 20 uM
T14 construct: purchased Eurofins DiscoverX (KINOMEscan; SAFETYscan E/IC50 ELECT)

SERT = target: T15, SERT (Homo sapiens, UniProt P31645); assay: SAFETYscan Transporter; assay type: cell-based; design: dose or concentration left out as unconfirmed; settings: read-out: Max Response (%) (Antagonist)
T15 construct: purchased Eurofins DiscoverX (KINOMEscan; SAFETYscan E/IC50 ELECT)
Protocol: as §1

NET = target: T16, NET (Homo sapiens, UniProt P23975); assay: SAFETYscan Transporter; assay type: cell-based; design: dose or concentration left out as unconfirmed; settings: read-out: Max Response (%) (Antagonist)
T16 construct: purchased Eurofins DiscoverX (KINOMEscan; SAFETYscan E/IC50 ELECT)
Protocol: as §1

DAT = target: T17, DAT (Homo sapiens, UniProt Q01959); assay: SAFETYscan Transporter; assay type: cell-based; design: dose or concentration left out as unconfirmed; settings: read-out: Max Response (%) (Antagonist)
T17 construct: purchased Eurofins DiscoverX (KINOMEscan; SAFETYscan E/IC50 ELECT)
Protocol: as §1

PIM3 = target: T18, PIM3 (Homo sapiens, UniProt Q86V86); assay: KINOMEscan scanEDGE; assay type: binding; settings: 20 uM
T18 construct: purchased Eurofins DiscoverX (KINOMEscan; SAFETYscan E/IC50 ELECT)
Protocol: as §1

MKNK1 = target: T19, MKNK1 (Homo sapiens, UniProt Q9BUB5); assay: KINOMEscan scanEDGE; assay type: binding; settings: 20 uM
T19 construct: purchased Eurofins DiscoverX (KINOMEscan; SAFETYscan E/IC50 ELECT)
Protocol: as §1

[1] = target: T20, TYK2(JH1domain-catalytic) (Homo sapiens, UniProt P29597); assay: KINOMEscan scanEDGE; assay type: binding; settings: 20 uM
T20 construct: TYK2(JH1domain-catalytic); purchased Eurofins DiscoverX (KINOMEscan; SAFETYscan E/IC50 ELECT)
T20 sequence (P29597 888-1187 limits assumed): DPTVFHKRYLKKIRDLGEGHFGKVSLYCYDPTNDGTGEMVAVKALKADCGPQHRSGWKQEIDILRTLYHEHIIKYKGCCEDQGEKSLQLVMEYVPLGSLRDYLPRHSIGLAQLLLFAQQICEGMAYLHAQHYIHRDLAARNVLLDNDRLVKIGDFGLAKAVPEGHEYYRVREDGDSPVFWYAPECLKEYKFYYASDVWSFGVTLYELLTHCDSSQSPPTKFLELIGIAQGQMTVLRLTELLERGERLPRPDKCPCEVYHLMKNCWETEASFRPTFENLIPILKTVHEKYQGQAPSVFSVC
Protocol: as §1

JNK2 = target: T21, JNK2 (Homo sapiens, UniProt P45984); assay: KINOMEscan scanEDGE; assay type: binding; settings: 20 uM
T21 construct: purchased Eurofins DiscoverX (KINOMEscan; SAFETYscan E/IC50 ELECT)
Protocol: as §1

PIK3C2B = target: T22, PIK3C2B (Homo sapiens, UniProt O00750); assay: KINOMEscan scanEDGE; assay type: binding; settings: 20 uM
T22 construct: purchased Eurofins DiscoverX (KINOMEscan; SAFETYscan E/IC50 ELECT)
Protocol: as §1

PCTK1 = target: T23, PCTK1 (Homo sapiens, UniProt Q00536); assay: KINOMEscan scanEDGE; assay type: binding; settings: 20 uM
T23 construct: purchased Eurofins DiscoverX (KINOMEscan; SAFETYscan E/IC50 ELECT)
Protocol: as §1

AKT1 = target: T24, AKT1 (Homo sapiens, UniProt P31749); assay: KINOMEscan scanEDGE; assay type: binding; settings: 20 uM
T24 construct: purchased Eurofins DiscoverX (KINOMEscan; SAFETYscan E/IC50 ELECT)
Protocol: as §1

FGFR2 = target: T25, FGFR2 (Homo sapiens, UniProt P21802); assay: KINOMEscan scanEDGE; assay type: binding; settings: 20 uM
T25 construct: purchased Eurofins DiscoverX (KINOMEscan; SAFETYscan E/IC50 ELECT)
Protocol: as §1

DCAMKL1 = target: T26, DCAMKL1 (Homo sapiens, UniProt O15075); assay: KINOMEscan scanEDGE; assay type: binding; settings: 20 uM
T26 construct: purchased Eurofins DiscoverX (KINOMEscan; SAFETYscan E/IC50 ELECT)
Protocol: as §1

[2] = read-out: Max Response (%) (Agonist)
[3] = read-out: Max Response (%) (Antagonist)

`O=c1ccc(-c2cnc(OCC(F)(F)F)nc2)nn1Cc1cncc(F)c1` [EDG-5506] was tested, and the “binding, % of control” value (TGFBR1) was 100 % of control, the “binding, % of control” value (PAK4) was 99 % of control and the Emax (CHRM3; [2]) was 2.48%. The Emax (CHRM3; [3]) was 2.14%, the Emax (ADORA2A; [2]) was 0% and the Emax (ADORA2A; [3]) was 0%. For the same compound, the Emax (CHRM1; [2]) was 0.16%, the Emax (CHRM1; [3]) was 0% and the Emax (ADRA1A; [2]) was 2.19%. It also gave an Emax (ADRA1A; [3]) of 18.5%, an Emax (CCKAR; [2]) of 1.03% and an Emax (CCKAR; [3]) of 5.54%. It also gave an Emax (HTR2A; [2]) of 3.31%, an Emax (HTR2A; [3]) of 0.4% and an Emax (HTR2B; [2]) of 5.88%. It also gave an Emax (HTR2B; [3]) of 2.49%, an Emax (HRH1; [2]) of 0% and an Emax (HRH1; [3]) of 25.2%. For the same compound, the Emax (EDNRA; [2]) was 0%, the Emax (EDNRA; [3]) was 0% and the Emax (AVPR1A; [2]) was 0%. For the same compound, the Emax (AVPR1A; [3]) was 0%, the “binding, % of control” value (FLT3) was 89 % of control and the “binding, % of control” value (JNK3) was 81 % of control. It also gave an Emax (SERT) of 6.08%, an Emax (NET) of 4.79% and an Emax (DAT) of 0%. The “binding, % of control” value (PIM3) was 99 % of control, the “binding, % of control” value (MKNK1) was 85 % of control and the “binding, % of control” value [1] was 87 % of control. For the same compound, the “binding, % of control” value (JNK2) was 96 % of control, the “binding, % of control” value (PIK3C2B) was 100 % of control and the “binding, % of control” value (PCTK1) was 100 % of control. The “binding, % of control” value (AKT1) was 100 % of control, the “binding, % of control” value (FGFR2) was 84 % of control and the “binding, % of control” value (DCAMKL1) was 76 % of control.
